The values below come from paper PMC8893036 (European journal of medicinal chemistry, 2022).

Read-outs that look alike come from different tables or passages of the source.

For data set [1], the target named is T1, ABCG2 (Homo sapiens, UniProt Q9UNQ0).
T1 sequence (Q9UNQ0 1-655): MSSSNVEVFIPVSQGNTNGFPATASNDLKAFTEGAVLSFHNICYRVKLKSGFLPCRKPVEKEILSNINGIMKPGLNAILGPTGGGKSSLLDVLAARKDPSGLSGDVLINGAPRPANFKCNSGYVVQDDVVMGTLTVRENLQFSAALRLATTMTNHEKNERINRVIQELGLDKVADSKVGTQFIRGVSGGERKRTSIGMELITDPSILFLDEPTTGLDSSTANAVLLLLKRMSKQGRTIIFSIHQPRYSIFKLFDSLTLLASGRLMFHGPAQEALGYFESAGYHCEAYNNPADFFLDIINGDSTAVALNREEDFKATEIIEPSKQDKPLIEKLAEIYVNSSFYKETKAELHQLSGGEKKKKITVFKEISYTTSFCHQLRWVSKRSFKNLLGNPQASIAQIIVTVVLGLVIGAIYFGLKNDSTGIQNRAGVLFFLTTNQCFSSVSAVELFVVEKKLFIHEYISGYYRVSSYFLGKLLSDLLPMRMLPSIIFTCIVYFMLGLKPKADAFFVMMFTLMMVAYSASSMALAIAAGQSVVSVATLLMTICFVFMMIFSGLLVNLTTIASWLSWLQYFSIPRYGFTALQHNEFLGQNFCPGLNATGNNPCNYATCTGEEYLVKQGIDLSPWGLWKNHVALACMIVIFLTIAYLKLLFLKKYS

A further data set deals with P-gp (ABCB1). To be noted: cited from earlier work.
The target of data set [2] is T2, human A3 adenosine receptor (Homo sapiens, UniProt P0DMS8).
T2 sequence (P0DMS8 1-318): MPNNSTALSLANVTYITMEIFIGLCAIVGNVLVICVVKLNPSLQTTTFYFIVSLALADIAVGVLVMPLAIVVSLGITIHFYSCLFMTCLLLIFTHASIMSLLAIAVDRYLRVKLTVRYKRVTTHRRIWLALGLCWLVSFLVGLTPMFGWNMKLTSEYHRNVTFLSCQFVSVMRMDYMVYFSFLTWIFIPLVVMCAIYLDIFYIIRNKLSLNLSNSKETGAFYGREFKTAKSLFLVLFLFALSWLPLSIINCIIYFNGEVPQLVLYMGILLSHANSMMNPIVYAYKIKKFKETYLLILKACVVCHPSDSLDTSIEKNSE
The note with it: agonists; Tables S1 – S4; cited from earlier work.

Data set [3] has as its target T1, ABCG2. The experiment in a line: ATPase activity of ABCG2, total membranes of High-Five insect cells.
The target in data set [4] is T1, ABCG2. The experiment in a line: in vitro. The note with it: pH 6.8.
Another data set deals with human A2A receptor. To be noted: cited from earlier work.
For another data set, the system named is human A1 receptor. The note with it: cited from earlier work.
The target in data set [5] is mouse A3 adenosine receptor. To be noted: read-out: A3 adenosine receptor affinity Ki; mouse homologue; cited from earlier work.

Regarding `CNC(=O)[C@H]1O[C@@H](n2cnc3c(NCc4cccc(I)c4)nc(Cl)nc32)[C@H](O)[C@@H]1O` [Compound 4, reference compound], at ABCG2 [1], the “modulation of ABCG2 ATP hydrolysis” value is “stimulated ATP hydrolysis at multiple concentrations”.

Regarding `CNC(=O)[C@]12C[C@@H]1[C@@H](n1cnc3c(NCc4cccc(Cl)c4)nc(C#Cc4ccc(F)c(F)c4)nc31)[C@H](O)[C@@H]2O` [Compound 5], in the data set with P-gp (ABCB1), the “effect on ATPase activity of P-gp” value is recorded as “stimulate the ATPase activity of P-gp”. Besides, the “human A3 adenosine receptor affinity” value in data set [2] was “single digit nM affinity”. For the same molecule, on ABCG2 [3], the “modulation of ABCG2 ATP hydrolysis” value is given as “stimulated ATP hydrolysis at multiple concentrations”. In addition, the “ATPase activity of ABCG2 % Stimulation (upward arrow)” value at ABCG2 [3] (2.5 μM, basal ATPase activity = 0%, mean ± SD, three experiments) was no less than 50%.

Take `CNC(=O)[C@]12C[C@@H]1[C@@H](n1cnc3c(NCc4cccc(Cl)c4)nc(C#Cc4ccccc4)nc31)[C@H](O)[C@@H]2O` [Compound 8]: the “modulation of ABCG2 ATP hydrolysis” value at ABCG2 [3] is given as “stimulated ATP hydrolysis at 2.5 μM, but not 10 μM”.

`CNC(=O)[C@]12C[C@@H]1[C@@H](n1cnc3c(NCc4cccc(Cl)c4)nc(C#Cc4cccc(Cl)c4)nc31)[C@H](O)[C@@H]2O` [Compound 10]: the “modulation of ABCG2 ATP hydrolysis” value at ABCG2 [3] is given as “stimulated ATP hydrolysis at 2.5 μM, but not 10 μM”.

For the molecule `CNC(=O)[C@]12C[C@@H]1[C@@H](n1cnc3c(N[C@H]4C[C@@H]4c4ccc(F)c(F)c4)nc(C#Cc4cccc(F)c4)nc31)[C@H](O)[C@@H]2O` [Compound 15], the “human A3 adenosine receptor affinity” value in data set [2] is “single digit nM affinity”. For the same molecule, on ABCG2 [1] (human, 20 min, 2.5 μM, pH 6.8), the “modulation of ABCG2 ATP hydrolysis” value is “stimulated ATP hydrolysis at 2.5 μM, but not 10 μM”.

As to `CNC(=O)[C@]12C[C@@H]1[C@@H](n1cnc3c(NCc4cccc(-n5cc(-c6ccc(F)c(F)c6)nn5)c4)nc(C#Cc4ccc(F)cc4)nc31)[C@H](O)[C@@H]2O` [Compound 16], the inhibition at 20 min, 2.5 µM at ABCG2 [4] is no less than 50%.

In the case of `CNC(=O)[C@]12C[C@@H]1[C@@H](n1cnc3c(NCc4cccc(-n5cc(-c6ccc(F)c(F)c6)nn5)c4)nc(C#Cc4ccc(F)c(F)c4)nc31)[C@H](O)[C@@H]2O` [Compound 17], the “effect on ATPase activity of P-gp” value in the data set with P-gp (ABCB1) was “partially inhibited the basal ATPase activity of P-gp”. Also, in data set [2], the “human A3 adenosine receptor affinity” value was “single digit nM affinity”.

With `CNC(=O)[C@]12C[C@@H]1[C@@H](n1cnc3c(NCc4cccc(-n5cc(-c6ccc(F)c(F)c6)nn5)c4)nc(C#Cc4ccc(F)cc4F)nc31)[C@H](O)[C@@H]2O` [Compound 19], at ABCG2 [1] (human, 20 min, 2.5 μM, pH 6.8), the “modulation of ABCG2 ATP hydrolysis” value is listed as “inhibited only at 10 μM”.

`CNC(=O)[C@]12C[C@@H]1[C@@H](n1cnc3c(NCc4cccc(-n5cc(-c6ccc(F)c(F)c6)nn5)c4)nc(C#Cc4cc(F)c(F)c(F)c4)nc31)[C@H](O)[C@@H]2O` [Compound 20]: the “modulation of ABCG2 ATP hydrolysis” value on ABCG2 [1] is on record as “inhibited ATP hydrolysis at both concentrations”.

With `CNC(=O)[C@]12C[C@@H]1[C@@H](n1cnc3c(NCc4cccc(-n5cc(-c6ccc(F)c(F)c6)nn5)c4)nc(C#Cc4ccc(C(F)(F)F)cc4)nc31)[C@H](O)[C@@H]2O` [Compound 21], on ABCG2 [1] (human, 20 min, 2.5 μM, pH 6.8), the “modulation of ABCG2 ATP hydrolysis” value was “inhibited only at 10 μM”.

Consider `CNC(=O)[C@]12C[C@@H]1[C@@H](n1cnc3c(NC)nc(C#Cc4ccc(Cl)s4)nc31)[C@H](O)[C@@H]2O` [Compound 25], for which the “modulation of ABCG2 ATP hydrolysis” value on ABCG2 [3] was “stimulated ATP hydrolysis at 2.5 μM, but not 10 μM”.

For the molecule `CCCNc1nc(C#Cc2ccc(Cl)s2)nc2c1ncn2[C@H]1[C@H](O)[C@H](O)[C@@]2(C(=O)NC)C[C@H]12` [Compound 26], the “modulation of ABCG2 ATP hydrolysis” value on ABCG2 [1] is listed as “stimulated ATP hydrolysis at multiple concentrations”.

Take `CNc1nc(C#Cc2ccc(Cl)s2)nc2c1ncn2[C@H]1[C@H](O)[C@H](O)[C@@]2(C(=O)OC)C[C@H]12` [Compound 27]: at ABCG2 [1], the “modulation of ABCG2 ATP hydrolysis” value is given as “stimulated ATP hydrolysis at multiple concentrations”.

As to `CNC(=O)[C@]12C[C@@H]1[C@@H](n1cnc3c(NCc4cccc(Cl)c4)nc(-n4cc(-c5ccc(F)c(F)c5)nn4)nc31)[C@H](O)[C@@H]2O` [Compound 28], at ABCG2 [1] (human, 20 min, 2.5 μM, pH 6.8), the “modulation of ABCG2 ATP hydrolysis” value is reported as “inhibited only at 10 μM”.

For `CNC(=O)[C@]12C[C@@H]1[C@@H](n1cnc3c(NCc4cccc(Cl)c4)nc(C#Cc4ccc(Cl)s4)nc31)[C@H](O)[C@@H]2O` [Compound 29], the “modulation of ABCG2 ATP hydrolysis” value on ABCG2 [1] is on record as “stimulated ATP hydrolysis at multiple concentrations”.

Consider `O[C@@H]1[C@H](O)[C@@H]2C[C@@H]2[C@H]1n1cnc2c(NCc3cccc(Cl)c3)nc(C#Cc3ccc(F)c(F)c3)nc21` [Compound 30], for which the “increase of P-gp ATPase activity” value with P-gp (ABCB1) (2.5 μM) was 116%.

Turning to `CNC(=O)[C@H]1O[C@@H](n2cnc3c(NC)nc(C#Cc4ccc(Cl)s4)nc32)[C@H](O)[C@@H]1O` [Compound 32], the “effect on ATPase activity of P-gp” value with P-gp (ABCB1) is on record as “very weak at P-gp”.

With `CCCNc1nc(C#Cc2ccc(Cl)s2)nc2c1ncn2[C@@H]1O[C@H](C(=O)NC)[C@@H](O)[C@H]1O` [Compound 33], the “modulation of ABCG2 ATP hydrolysis” value on ABCG2 [1] was “stimulated ATP hydrolysis at multiple concentrations”.

Consider `COc1cc(CCNC2=NC(C#Cc3ccc(Cl)s3)=NC3=NC=NC32)ccc1O` (centres unmarked) [Compound 37c], for which the “activity at human A2A receptor” value in the data set with human A2A receptor (adenine series) was “inactive”. The “activity at human A1 receptor” value in the data set on human A1 receptor (adenine series) was “inactive”.

In the case of `CCCOC(=O)[C@]12C[C@@H]1[C@@H](n1cnc3c(NC)nc(C#Cc4ccc(Cl)s4)nc31)[C@H](O)[C@@H]2O` [Compound 45], the “human A3 adenosine receptor affinity” value in data set [2] is “single digit nM affinity”. Also, the “modulation of ABCG2 ATP hydrolysis” value at ABCG2 [1] was “stimulated ATP hydrolysis at multiple concentrations”.

For `CNc1nc(C#Cc2ccc(Cl)s2)nc2c1ncn2[C@H]1[C@H](O)[C@H](O)[C@@]2(C(=O)Oc3ccccc3)C[C@H]12` [Compound 50], in data set [2], the “human A3 adenosine receptor affinity” value is recorded as “single digit nM affinity”. In addition, the “modulation of ABCG2 ATP hydrolysis” value at ABCG2 [1] was “stimulated ATP hydrolysis at multiple concentrations”.

As for `CCOC(=O)[C@]12C[C@@H]1[C@@H](n1cnc3c(NCCc4ccc(O)c(OC)c4)nc(C#Cc4ccc(Cl)s4)nc31)[C@H](O)[C@@H]2O` [Compound 55], the “ATPase activity of ABCG2 % Stimulation (upward arrow)” value at ABCG2 [1] (human, 20 min, 2.5 μM, pH 6.8) was no less than 50%.

Take `CCOC(=O)[C@]12C[C@@H]1[C@@H](n1ccc3c(NCCc4ccccc4)nc(C#Cc4ccccc4)nc31)[C@H](O)[C@@H]2O` [Compound 60]: the “activity at human A2A receptor” value in the data set with human A2A receptor is “inactive”. Moreover, the Ki in data set [5] was greater than 10 µM. In addition, in the data set with human A1 receptor, the “activity at human A1 receptor” value was “inactive”.

On to `CCOC(=O)[C@]12C[C@@H]1[C@@H](n1ccc3c(NCCCc4ccc(OC)c(O)c4)nc(C#Cc4ccccc4)nc31)[C@H](O)[C@@H]2O` [Compound 63], for which the “ATPase activity of ABCG2 % Stimulation (upward arrow)” value at ABCG2 [1] (human, 20 min, 2.5 μM, pH 6.8) was no less than 50%.

For the molecule `CCOC(=O)[C@]12C[C@@H]1[C@@H](n1ccc3c(NCCCc4ccc(OC)c(O)c4)nc(C#Cc4ccc(Cl)s4)nc31)[C@H](O)[C@@H]2O` [Compound 64], the “ATPase activity of ABCG2 % Stimulation (upward arrow)” value on ABCG2 [1] (human, 20 min, 2.5 μM, pH 6.8) was no less than 50%.

As a reminder, the inhibition is the percentage by which the read-out fell short of the control. Read a high inhibition as strong suppression. The Ki is the dissociation constant of the complex between target and ligand, obtained from inhibition or displacement.
